Experimental findings from patent US10213433B2 (AbbVie Inc., priority 2010, dated 2019) are described below.

Each structure is given as a SMILES string.

Sequence of Bcl-2 protein (P10415 whole entry): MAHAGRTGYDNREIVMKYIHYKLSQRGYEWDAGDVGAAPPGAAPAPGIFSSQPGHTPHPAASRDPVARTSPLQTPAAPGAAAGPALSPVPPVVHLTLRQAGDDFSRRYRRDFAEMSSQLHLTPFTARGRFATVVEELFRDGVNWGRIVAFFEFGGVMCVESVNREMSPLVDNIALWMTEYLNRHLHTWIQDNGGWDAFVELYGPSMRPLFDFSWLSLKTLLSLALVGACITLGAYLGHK

The target of the experiment is Bcl-2 protein (Homo sapiens (Human), UniProt P10415). The experiment in a line: Bcl-2 binding TR-FRET (Time-Resolved Fluorescence-Resonance-Energy-Transfer) assay. Conditions: inhibition constant for binding to Bcl-2 protein. From the text:
The smaller the Ki value, the greater is the binding affinity.
A general note: Time-resolved FRET reads energy transfer from a long-lived donor to a nearby acceptor.
Broadly, the Ki is the dissociation constant of the complex between target and ligand, obtained from inhibition or displacement. A high value points to weaker binding. On to `CN1CCC(Nc2ccc(S(=O)(=O)NC(=O)c3ccc(N4CCN(CC5=C(c6ccc(Cl)cc6)CC(C)(C)CC5)CC4)cc3Oc3cnc4[nH]ccc4c3)cc2[N+](=O)[O-])CC1` [Compound 4, 4-(4-{[2-(4-chlorophenyl)-4,4-dimethylcyclohex-1-en-1-yl]methyl}piperazin-1-yl)-N-({4-[(1-methylpiperidin-4-yl)amino]-3-nitrophenyl}sulfonyl)-2-(1H-pyrrolo[2,3-b]pyridin-5-yloxy)benzamide], for which the Ki is less than 0.01 nM.

The molecule `CC1(C)CCC(CN2CCN(c3ccc(C(=O)NS(=O)(=O)c4ccc(NC[C@H]5CC[C@H](O)C5)c([N+](=O)[O-])c4)c(Oc4cnc5[nH]ccc5c4)c3)CC2)=C(c2ccc(Cl)cc2)C1` [Compound 157, 4-(4-{[2-(4-chlorophenyl)-4,4-dimethylcyclohex-1-en-1-yl]methyl}piperazin-1-yl)-N-{[4-({[(1S,3S)-3-hydroxycyclopentyl]methyl}amino)-3-nitrophenyl]sulfonyl}-2-(1H-pyrrolo[2,3-b]pyridin-5-yloxy)benzamide] gave a Ki of less than 0.01 nM. `O=C(NS(=O)(=O)c1ccc(NCC2CCOCC2)c([N+](=O)[O-])c1)c1ccc(N2CCN(CC3=C(c4ccc(Cl)cc4)CCC4(CCCC4)C3)CC2)cc1Oc1cnc2[nH]ccc2c1` [Compound 79, 4-(4-{[8-(4-chlorophenyl)spiro[4.5]dec-7-en-7-yl]methyl}piperazin-1-yl)-N-({3-nitro-4-[(tetrahydro-2H-pyran-4-ylmethyl)amino]phenyl}sulfonyl)-2-(1H-pyrrolo[2,3-b]pyridin-5-yloxy)benzamide]: the Ki is less than 0.01 nM. Consider `CC(=O)N1CCCC(CNc2ccc(S(=O)(=O)NC(=O)c3ccc(N4CCN(CC5=C(c6ccc(Cl)cc6)CC(C)(C)CC5)CC4)cc3Oc3cnc4[nH]ccc4c3)cc2[N+](=O)[O-])C1` (stereo not drawn) [Compound 148, N-[(4-{[(1-acetylpiperidin-3-yl)methyl]amino}-3-nitrophenyl)sulfonyl]-4-(4-{[2-(4-chlorophenyl)-4,4-dimethylcyclohex-1-en-1-yl]methyl}piperazin-1-yl)-2-(1H-pyrrolo[2,3-b]pyridin-5-yloxy)benzamide], for which the Ki was less than 0.01 nM. Under `CN1CCC(F)(COc2ccc(S(=O)(=O)NC(=O)c3ccc(N4CCN(CC5=C(c6ccc(Cl)cc6)CC(C)(C)CC5)CC4)cc3Oc3cnc4[nH]ccc4c3)cc2Cl)CC1` [Compound 283, N-({3-chloro-4-[(4-fluoro-1-methylpiperidin-4-yl)methoxy]phenyl}sulfonyl)-4-(4-{[2-(4-chlorophenyl)-4,4-dimethylcyclohex-1-en-1-yl]methyl}piperazin-1-yl)-2-(1H-pyrrolo[2,3-b]pyridin-5-yloxy)benzamide] stands less than 0.01 nM; under `CC1(C)CC(c2ccc(Cl)cc2)=C(CN2CCN(c3ccc(C(=O)NS(=O)(=O)c4ccc(OCC5COCCO5)c([N+](=O)[O-])c4)c(Oc4cnc5[nH]ccc5c4)c3)CC2)CO1` (stereo not drawn) [Compound 32, 4-(4-{[4-(4-chlorophenyl)-6,6-dimethyl-5,6-dihydro-2H-pyran-3-yl]methyl}piperazin-1-yl)-N-{[4-(1,4-dioxan-2-ylmethoxy)-3-nitrophenyl]sulfonyl}-2-(1H-pyrrolo[2,3-b]pyridin-5-yloxy)benzamide], less than 0.01 nM. Regarding `CC1(C)CCC(CN2CCN(c3ccc(C(=O)NS(=O)(=O)c4cnc(OC[C@]5(F)CC[C@@H](O)CC5)c(Cl)c4)c(Oc4cnc5[nH]ccc5c4)c3)CC2)=C(c2ccc(Cl)cc2)C1` [Compound 350, N-({5-chloro-6-[(cis-1-fluoro-4-hydroxycyclohexyl)methoxy]pyridin-3-yl}sulfonyl)-4-(4-{[2-(4-chlorophenyl)-4,4-dimethylcyclohex-1-en-1-yl]methyl}piperazin-1-yl)-2-(1H-pyrrolo[2,3-b]pyridin-5-yloxy)benzamide], the Ki was less than 0.01 nM. Under `COCCNc1ccc(S(=O)(=O)NC(=O)c2ccc(N3CCN(CC4=C(c5ccc(Cl)cc5)CC(C)(C)CC4)CC3)cc2Oc2cnc3[nH]ccc3c2)cc1[N+](=O)[O-]` [Compound 10, 4-(4-{[2-(4-chlorophenyl)-4,4-dimethylcyclohex-1-en-1-yl]methyl}piperazin-1-yl)-N-({4-[(2-methoxyethyl)amino]-3-nitrophenyl}sulfonyl)-2-(1H-pyrrolo[2,3-b]pyridin-5-yloxy)benzamide] stands less than 0.01 nM; under `CC1(C)CCC(CN2CCN(c3ccc(C(=O)NS(=O)(=O)c4ccc(NCC5CCN(S(C)(=O)=O)C5)c([N+](=O)[O-])c4)c(Oc4cnc5[nH]ccc5c4)c3)CC2)=C(c2ccc(Cl)cc2)C1` (stereo not drawn) [Compound 152, 4-(4-{[2-(4-chlorophenyl)-4,4-dimethylcyclohex-1-en-1-yl]methyl}piperazin-1-yl)-N-{[4-({[1-(methylsulfonyl)pyrrolidin-3-yl]methyl}amino)-3-nitrophenyl]sulfonyl}-2-(1H-pyrrolo[2,3-b]pyridin-5-yloxy)benzamide], less than 0.01 nM. Under `CC1(C)CC(c2ccc(Cl)cc2)=C(CN2CCN(c3ccc(C(=O)NS(=O)(=O)c4ccc(NCC5CCOCC5)c([N+](=O)[O-])c4)c(Oc4cnc5[nH]ccc5c4)c3)CC2)CO1` [Compound 15, 4-(4-{[4-(4-chlorophenyl)-6,6-dimethyl-5,6-dihydro-2H-pyran-3-yl]methyl}piperazin-1-yl)-N-({3-nitro-4-[(tetrahydro-2H-pyran-4-ylmethyl)amino]phenyl}sulfonyl)-2-(1H-pyrrolo[2,3-b]pyridin-5-yloxy)benzamide] stands less than 0.01 nM; under `CC1(C)CCC(CN2CCN(c3ccc(C(=O)NS(=O)(=O)c4ccc(NC5CCN(C6CCOC(C)(C)C6)CC5)c([N+](=O)[O-])c4)c(Oc4cnc5[nH]ccc5c4)c3)CC2)=C(c2ccc(Cl)cc2)C1` (stereo not drawn) [Compound 141, 4-(4-{[2-(4-chlorophenyl)-4,4-dimethylcyclohex-1-en-1-yl]methyl}piperazin-1-yl)-N-[(4-{[1-(2,2-dimethyltetrahydro-2H-pyran-4-yl)piperidin-4-yl]amino}-3-nitrophenyl)sulfonyl]-2-(1H-pyrrolo[2,3-b]pyridin-5-yloxy)benzamide], less than 0.01 nM; under `CC1(C)CCC(CN2CCN(c3ccc(C(=O)NS(=O)(=O)c4ccc(NCC5CN(CC(=O)O)CCO5)c([N+](=O)[O-])c4)c(Oc4cnc5[nH]ccc5c4)c3)CC2)=C(c2ccc(Cl)cc2)C1` (stereo not drawn) [Compound 216, (2-{[(4-{[4-(4-{[2-(4-chlorophenyl)-4,4-dimethylcyclohex-1-en-1-yl]methyl}piperazin-1-yl)-2-(1H-pyrrolo[2,3-b]pyridin-5-yloxy)benzoyl]sulfamoyl}-2-nitrophenyl)amino]methyl}morpholin-4-yl)acetic acid], less than 0.01 nM. Molecule `CC1(C)CCC(CN2CCN(c3ccc(C(=O)NS(=O)(=O)c4ccc(OC[C@H]5COCCO5)c([N+](=O)[O-])c4)c(Oc4cnc5[nH]ccc5c4)c3)CC2)=C(c2ccc(Cl)cc2)C1` [Compound 30, 4-(4-{[2-(4-chlorophenyl)-4,4-dimethylcyclohex-1-en-1-yl]methyl}piperazin-1-yl)-N-({4-[(2R)-1,4-dioxan-2-ylmethoxy]-3-nitrophenyl}sulfonyl)-2-(1H-pyrrolo[2,3-b]pyridin-5-yloxy)benzamide] gave an inhibitory constant (Ki) of less than 0.01 nM. Under `CC1CN(c2ccc(C(=O)NS(=O)(=O)c3ccc(NCC4CCOCC4)c([N+](=O)[O-])c3)c(Oc3cnc4[nH]ccc4c3)c2)CCN1CC1=C(c2ccc(Cl)cc2)CC(C)(C)CC1` (stereo not drawn) [Compound 290, 4-(4-{[2-(4-chlorophenyl)-4,4-dimethylcyclohex-1-en-1-yl]methyl}-3-methylpiperazin-1-yl)-N-({3-nitro-4-[(tetrahydro-2H-pyran-4-ylmethyl)amino]phenyl}sulfonyl)-2-(1H-pyrrolo[2,3-b]pyridin-5-yloxy)benzamide] stands less than 0.01 nM; under `CN1CCOC(CNc2ccc(S(=O)(=O)NC(=O)c3ccc(N4CCN(CC5=C(c6ccc(Cl)cc6)CC(C)(C)CC5)CC4)cc3Oc3cnc4[nH]ccc4c3)cc2[N+](=O)[O-])C1` (stereo not drawn) [Compound 134, 4-(4-{[2-(4-chlorophenyl)-4,4-dimethylcyclohex-1-en-1-yl]methyl}piperazin-1-yl)-N-[(4-{[(4-methylmorpholin-2-yl)methyl]amino}-3-nitrophenyl)sulfonyl]-2-(1H-pyrrolo[2,3-b]pyridin-5-yloxy)benzamide], less than 0.01 nM; under `CC1(C)CCC(CN2CCN(c3ccc(C(=O)NS(=O)(=O)c4ccc(NC5CN(C6CCOCC6)C5)c([N+](=O)[O-])c4)c(Oc4cnc5[nH]ccc5c4)c3)CC2)=C(c2ccc(Cl)cc2)C1` [Compound 116, 4-(4-{[2-(4-chlorophenyl)-4,4-dimethylcyclohex-1-en-1-yl]methyl}piperazin-1-yl)-N-({3-nitro-4-[(1-tetrahydro-2H-pyran-4-ylazetidin-3-yl)amino]phenyl}sulfonyl)-2-(1H-pyrrolo[2,3-b]pyridin-5-yloxy)benzamide], less than 0.01 nM.

`CC1(C)CCC(CN2CCN(c3ccc(C(=O)NS(=O)(=O)c4ccc(NCC5CCOC5)c([N+](=O)[O-])c4)c(Oc4cnc5[nH]ccc5c4)c3)CC2)=C(c2ccc(Cl)cc2)C1` (stereo not drawn) [Compound 114, 4-(4-{[2-(4-chlorophenyl)-4,4-dimethylcyclohex-1-en-1-yl]methyl}piperazin-1-yl)-N-({3-nitro-4-[(tetrahydrofuran-3-ylmethyl)amino]phenyl}sulfonyl)-2-(1H-pyrrolo[2,3-b]pyridin-5-yloxy)benzamide] displayed a Ki of less than 0.01 nM. Consider `CN(C)CC(=O)N1CCC(COc2ccc(S(=O)(=O)NC(=O)c3ccc(N4CCN(CC5=C(c6ccc(Cl)cc6)CC(C)(C)CC5)CC4)cc3Oc3cnc4[nH]ccc4c3)cc2Cl)CC1` [Compound 295, N-[(3-chloro-4-{[1-(N,N-dimethylglycyl)piperidin-4-yl]methoxy}phenyl)sulfonyl]-4-(4-{[2-(4-chlorophenyl)-4,4-dimethylcyclohex-1-en-1-yl]methyl}piperazin-1-yl)-2-(1H-pyrrolo[2,3-b]pyridin-5-yloxy)benzamide], for which the Ki was less than 0.01 nM.
